Test results: ChEMBL document CHEMBL3593201, “Isolation, Characterization, and Synthesis of the Barrettides: Disulfide-Containing Peptides from the Marine Sponge Geodia barretti” (J Nat Prod, 2015)
≈ marks a conversion by molar mass, not a printed value. Calls of active or inactive are those of the source. The calls are words filed in the database; no cut-off is given here. Peptide text beside a SMILES is read from it.

Assays:
Amphibalanus improvisus [1] = assay: Anti-fouling activity against Balanus improvisus barnacle larvae assessed as inhibition of settlement propensity at 6 uM incubated for 4 days; assay type: functional, organism-based
Staphylococcus aureus [2] = assay: Antimicrobial activity against Staphylococcus aureus ATCC 29213 up to 80 uM; assay type: functional, organism-based
Amphibalanus improvisus [3] = assay: Toxicity against Balanus improvisus barnacle larvae assessed as number of dead larvae at 0.06 to 6 uM incubated for 24 hrs; assay type: organism-based; settings: in vivo
Escherichia coli [4] = assay: Antimicrobial activity against Escherichia coli ATCC 25922 up to 80 uM; assay type: functional, organism-based
Amphibalanus improvisus [5] = assay: Anti-fouling activity against Balanus improvisus barnacle larvae assessed as settlement propensity at 6 uM incubated for 4 days (reference value: 64 +/- 8%); assay type: functional
Amphibalanus improvisus [6] = assay: Anti-fouling activity against Balanus improvisus barnacle larvae assessed as inhibition of settlement propensity at 0.6 uM incubated for 4 days; assay type: functional, organism-based
Staphylococcus aureus [7] = assay: Antimicrobial activity against Staphylococcus aureus ATCC 29213; assay type: functional
Escherichia coli [8] = assay: Antimicrobial activity against Escherichia coli ATCC 25922; assay type: functional

SMILES	inhibition (Amphibalanus improvisus [1])	Activity (Staphylococcus aureus [2])	Activity (Amphibalanus improvisus [3])	Activity (Escherichia coli [4])	Activity (Amphibalanus improvisus [5])	inhibition (Amphibalanus improvisus [6])	MIC (Staphylococcus aureus [7])	MIC (Escherichia coli [8])
[H][C@@]12CCCN1C(=O)[C@H](CC(C)C)NC(=O)[C@]1([H])CSSC[C@]([H])(NC(=O)[C@H](Cc3ccccc3)NC(=O)[C@@H](NC(=O)[C@@H]3CCCN3C(=O)[C@H](CO)NC(=O)[C@@H](NC(=O)[C@@H](N)CC(=O)O)C(C)C)CSSC[C@@H](C(=O)N[C@@H](CC(=O)O)C(=O)N[C@@H](C)C(=O)N[C@@H](CO)C(=O)N[C@@H](CCCNC(=N)N)C(=O)NCC(=O)N[C@H](C(=O)N[C@@H](CC(N)=O)C(=O)N3CCC[C@H]3C(=O)O)[C@@H](C)O)NC(=O)[C@H](CC(N)=O)NC(=O)[C@H](CC(=O)O)NC2=O)C(=O)N[C@@H](C(C)C)C(=O)N[C@@H](CCC(=O)O)C(=O)N[C@@H](CC(=O)O)C(=O)N[C@@H](CCC(=O)O)C(=O)N[C@@]([H])([C@@H](C)O)C(=O)N[C@@H](CO)C(=O)NCC(=O)N[C@@H](C)C(=O)N[C@@H](CCCCN)C(=O)N[C@@]([H])([C@@H](C)O)C(=O)N1 (HELM PEPTIDE1{D.V.S.P.C.F.C.V.E.D.E.T.S.G.A.K.T.C.L.P.D.N.C.D.A.S.R.G.T.N.P}$PEPTIDE1,PEPTIDE1,5:R3-23:R3|PEPTIDE1,PEPTIDE1,7:R3-18:R3$$$V2.0)	Active	inactive	Non-toxic	inactive	8%	–	–	–
[H][C@@]12CCCN1C(=O)[C@H](C(C)C)NC(=O)[C@]1([H])CSSC[C@]([H])(NC(=O)[C@H](Cc3ccccc3)NC(=O)[C@@H](NC(=O)[C@@H]3CCCN3C(=O)[C@H](CO)NC(=O)[C@@H](NC(=O)[C@@H](N)CC(=O)O)C(C)C)CSSC[C@@H](C(=O)N[C@@H](CC(=O)O)C(=O)N[C@@H](C)C(=O)N[C@@H](CO)C(=O)N[C@@H](CCCNC(=N)N)C(=O)NCC(=O)N[C@H](C(=O)N[C@@H](CC(N)=O)C(=O)N3CCC[C@H]3C(=O)O)[C@@H](C)O)NC(=O)[C@H](CC(N)=O)NC(=O)[C@H](CC(=O)O)NC2=O)C(=O)N[C@@H](C(C)C)C(=O)N[C@@H](CCC(=O)O)C(=O)N[C@@H](CC(=O)O)C(=O)N[C@@H](CCC(=O)O)C(=O)N[C@@]([H])([C@@H](C)O)C(=O)N[C@@H](CO)C(=O)NCC(=O)N[C@@H](C)C(=O)N[C@@H](CCCCN)C(=O)N[C@@]([H])([C@@H](C)O)C(=O)N1 (HELM PEPTIDE1{D.V.S.P.C.F.C.V.E.D.E.T.S.G.A.K.T.C.V.P.D.N.C.D.A.S.R.G.T.N.P}$PEPTIDE1,PEPTIDE1,5:R3-23:R3|PEPTIDE1,PEPTIDE1,7:R3-18:R3$$$V2.0)	Active	inactive	Non-toxic	inactive	15%	Active	–	–
CC[C@H](C)[C@H](NC(=O)[C@H](CCCCN)NC(=O)[C@H](CCC(=O)O)NC(=O)[C@H](CCCCN)NC(=O)[C@H](CO)NC(=O)[C@H](CCCCN)NC(=O)[C@H](CCCNC(=N)N)NC(=O)[C@H](Cc1ccccc1)NC(=O)[C@H](Cc1ccccc1)NC(=O)[C@H](CC(=O)O)NC(=O)CNC(=O)[C@H](CC(C)C)NC(=O)[C@@H](N)CC(C)C)C(=O)NCC(=O)N[C@@H](CCCCN)C(=O)N[C@@H](CCC(=O)O)C(=O)N[C@@H](Cc1ccccc1)C(=O)N[C@@H](CCCCN)C(=O)N[C@@H](CCCNC(=N)N)C(=O)N[C@H](C(=O)N[C@H](C(=O)N[C@@H](CCC(N)=O)C(=O)N[C@@H](CCCNC(=N)N)C(=O)N[C@H](C(=O)N[C@@H](CCCCN)C(=O)N[C@@H](CC(=O)O)C(=O)N[C@@H](Cc1ccccc1)C(=O)N[C@@H](CC(C)C)C(=O)N[C@@H](CCCNC(=N)N)C(=O)N[C@@H](CC(N)=O)C(=O)N[C@@H](CC(C)C)C(=O)N[C@H](C(=O)N1CCC[C@H]1C(=O)N[C@@H](CCCNC(=N)N)C(=O)N[C@H](C(=O)N[C@@H](CCC(=O)O)C(=O)N[C@@H](CO)C(=O)O)[C@@H](C)O)C(C)C)[C@@H](C)CC)C(C)C)[C@@H](C)CC [CATHELICIDIN]	–	–	–	–	–	–	1 µM (≈ 4.49 µg/mL)	1 µM (≈ 4.49 µg/mL)
